Reference: patent publication US9512107B2, “Therapeutically active compositions and their methods of use” (Agios Pharmaceuticals, Inc., priority 2012, dated 2016)
Positions count from the first letter of the chain named.

How the values were obtained:
IDH2 R140Q = target: T1, IDH2 R140Q (Homo sapiens, UniProt P48735, R140Q); assay: IDH2 R140Q enzymatic assay (cofactor depletion, similar format); assay type: biochemical; conditions: read-out: Enz R140Q
T1 sequence (P48735 40-452 R140Q): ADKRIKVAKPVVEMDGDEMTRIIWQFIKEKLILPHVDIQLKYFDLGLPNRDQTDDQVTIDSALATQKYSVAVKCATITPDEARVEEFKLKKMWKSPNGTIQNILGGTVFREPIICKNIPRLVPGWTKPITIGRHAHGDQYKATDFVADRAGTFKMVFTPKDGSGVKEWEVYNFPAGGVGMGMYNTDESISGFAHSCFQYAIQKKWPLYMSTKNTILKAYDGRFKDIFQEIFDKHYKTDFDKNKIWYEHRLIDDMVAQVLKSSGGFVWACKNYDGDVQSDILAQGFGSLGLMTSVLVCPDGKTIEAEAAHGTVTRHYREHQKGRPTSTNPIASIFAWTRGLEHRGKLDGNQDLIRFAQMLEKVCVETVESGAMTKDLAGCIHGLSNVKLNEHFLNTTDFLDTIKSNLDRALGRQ

IDH2 R172K = target: T2, IDH2 R172K (Homo sapiens, UniProt P48735, R172K); assay: IDH2 R172K enzymatic assay (NADPH cofactor depletion, diaphorase/resazurin readout); assay type: biochemical; conditions: read-out: Enz R172K
T2 sequence (P48735 40-452 R172K): T1 sequence (P48735 40-452 R140Q) with Q101R, R133K
Description: Compounds are assayed for IDH2 R172K inhibitory activity through a cofactor depletion assay. […] The reaction is terminated by the addition of a second enzyme, diaphorase, and a corresponding substrate, resazurin. Diaphorase reduces resazurin to the highly fluorescent resorufin with the concomitant oxidation of NADPH to NADP, both halting the IDH2 reaction by depleting the available cofactor pool and facilitating quantitation of the amount of cofactor remaining after a specific time period through quantitative production of an easily detected fluorophore.
The test compound is then incubated for one hour at room temperature with the enzyme; before starting the IDH2 reaction with the addition of 10 μl of substrate mix containing 50 μM NADPH and 6.3 mM α-KG in the buffer described above. After a further one hour of incubation at room temperature, the reaction is halted and the remaining NADPH measured through conversion of resazurin to resorufin by the addition of 25 μl Stop Mix (36 μg/ml diaphorase enzyme and 60 μM resazurin; in buffer).

[1] = system: U87MG pLVX-IDH2 R140Q-neo cells; assay: U87MG pLVX-IDH2 R140Q-neo cell based assay, 2-HG in media by LC-MS at 48 hours; conditions: Homo sapiens, U-87 MG
Method in brief: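 2-HG secreted into the medium was measured by LC-MS after 48 h of compound treatment (0.2% DMSO final) of U87MG pLVX-IDH2 R140Q-neo cells in DMEM/10% FBS. The same wells were assayed at 72 h by CellTiter-Glo luminescence for effects on growth.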

Row | IC50 (IDH2 R140Q) [nM] | IC50 (IDH2 R172K) [nM] | IC50 [1] [nM] | SMILES
1 | 100 to 1000 | < 100 | < 100 | CC(C)Nc1nc(Nc2cc(F)cc(F)c2)nc(-c2nccc(C(F)(F)F)n2)n1 [Compound 455, N-(3,5-Difluoro-phenyl)-N′-isopropyl-6-(4-trifluoromethyl-pyrimidin-2-yl)-[1,3,5]triazine-2,4-diamine]
2 | 1000 to 10000 | 100 to 1000 | < 100 | CC(C)Nc1nc(Nc2ccnc(C(C)(F)F)c2)nc(-c2cccc(Cl)n2)n1 [Compound 513, 6-(6-Chloro-pyridin-2-yl)-N-[2-(1,1-difluoro-ethyl)-pyridin-4-yl]-N′-isopropyl-[1,3,5]triazine-2,4-diamine]
3 | 100 to 1000 | < 100 | < 100 | CC(C)Nc1nc(Nc2cccc(S(=O)(=O)NCC(F)(F)F)c2)nc(-c2cccc(Cl)n2)n1 [Compound 518, 3-[4-(6-Chloro-pyridin-2-yl)-6-isopropylamino-[1,3,5]triazin-2-ylamino]-N-(2,2,2-trifluoro-ethyl)-benzenesulfonamide]
4 | 100 to 1000 | < 100 | < 100 | CC1CC1Nc1nc(Nc2ccnc(C(F)(F)F)c2)nc(-c2cccc(C(F)(F)F)n2)n1 (stereo not drawn) [Compound 532, N-(2-Methyl-cyclopropyl)-6-(6-trifluoromethyl-pyridin-2-yl)-N′-(2-trifluoromethyl-pyridin-4-yl)-[1,3,5]triazine-2,4-diamine]
5 | < 100 | 1000 to 10000 | 100 to 1000 | CC(C)Nc1nc(Nc2cccc(C(C)(C)O)c2)nc(-c2ccccc2)n1 [Compound 201, 2-(3-(4-(isopropylamino)-6-phenyl-1,3,5-triazin-2-ylamino)phenyl)propan-2-ol]
6 | 100 to 1000 | > 10000 | 1000 to 10000 | CC(C)Nc1nc(Nc2ccc(S(C)(=O)=O)cc2)nc(-c2ccccc2)n1 [Compound 452, N2-isopropyl-N4-(4-(methylsulfonyl)phenyl)-6-phenyl-1,3,5-triazine-2,4-diamine]
7 | 100 to 1000 | 100 to 1000 | < 100 | Cc1nc(-c2nc(Nc3cccc(F)c3)nc(NC(C)C)n2)co1 [Compound 471, N-(3-Fluoro-phenyl)-N′-isopropyl-6-(2-methyl-oxazol-4-yl)-[1,3,5]triazine-2,4-diamine]
8 | 100 to 1000 | < 100 | < 100 | CC(C)Nc1nc(Nc2cc(F)cc(F)c2)nc(-c2ccnc(N)n2)n1 [Compound 482, 6-(2-Amino-pyrimidin-4-yl)-N-(3,5-difluoro-phenyl)-N′-isopropyl-[1,3,5]triazine-2,4-diamine]
9 | 100 to 1000 | 1000 to 10000 | 100 to 1000 | CC(C)(O)CNc1nc(Nc2cncc(F)c2)nc(-c2ccccc2F)n1 [Compound 621, 1-(4-(2-fluorophenyl)-6-(5-fluoropyridin-3-ylamino)-1,3,5-triazin-2-ylamino)-2-methylpropan-2-ol]
10 | 100 to 1000 | 100 to 1000 | < 100 | CC(C)Nc1nc(Nc2cccc(S(=O)(=O)NCC3CC3)c2)nc(-c2cccc(Cl)n2)n1 [Compound 497, 3-[4-(6-Chloro-pyridin-2-yl)-6-isopropylamino-[1,3,5]triazin-2-ylamino]-N-cyclopropylmethyl-benzenesulfonamide]
11 | < 100 | < 100 | < 100 | Clc1cccc(Nc2nc(NC3CCOCC3)nc(-c3ccccc3)n2)c1 [Compound 173]
12 | < 100 | < 100 | < 100 | CC(C)Nc1nc(Nc2ccccc2)nc(-c2ccccc2Cl)n1 [Compound 121]
13 | 100 to 1000 | < 100 | < 100 | CC(C)Nc1nc(Nc2ccnc(C(F)(F)F)c2)nc(-c2cccc(C(C)(F)F)n2)n1 [Compound 582, 6-[6-(1,1-Difluoro-ethyl)-pyridin-2-yl]-N-isopropyl-N′-(2-trifluoromethyl-pyridin-4-yl)-[1,3,5]triazine-2,4-diamine]
14 | < 100 | 100 to 1000 | 100 to 1000 | FC1(F)CCC(Nc2nc(Nc3ccncc3)nc(-c3ccccc3)n2)CC1 [Compound 254, N^2-(4,4-difluorocyclohexyl)-6-phenyl-N^4-(pyridin-4-yl)-1,3,5-triazine-2,4-diamine]
15 | < 100 | < 100 | < 100 | COc1cccc(-c2nc(Nc3ccnc(C(F)(F)F)c3)nc(NC(C)C)n2)c1F [Compound 631, 6-(2-Fluoro-3-methoxy-phenyl)-N-isopropyl-N′-(2-trifluoromethyl-pyridin-4-yl)-[1,3,5]triazine-2,4-diamine]
16 | < 100 | 100 to 1000 | 100 to 1000 | CC(C)Nc1nc(Nc2ccccc2)nc(-c2cc(Cl)ccn2)n1 [Compound 228, 6-(4-chloropyridin-2-yl)-N^2-isopropyl-N^4-phenyl-1,3,5-triazine-2,4-diamine]
17 | 100 to 1000 | < 100 | < 100 | CC(C)Nc1nc(Nc2ccnc(CF)c2)nc(-c2cccc(C(F)(F)F)n2)n1 [Compound 676, N-(2-Fluoromethyl-pyridin-4-yl)-N′-isopropyl-6-(6-trifluoromethyl-pyridin-2-yl)-[1,3,5]triazine-2,4-diamine]
18 | < 100 | < 100 | < 100 | CC(C)Nc1nc(Nc2ccccc2)nc(-c2ccccc2)n1 [Compound 100]
19 | 100 to 1000 | < 100 | < 100 | CC(F)(F)c1cccc(-c2nc(NCC3CC3)nc(Nc3cc(Cl)cc(S(C)(=O)=O)c3)n2)n1 [Compound 609, N2-(3-chloro-5-(methylsulfonyl)phenyl)-N4-(cyclopropylmethyl)-6-(6-(1,1-difluoroethyl)pyridin-2-yl)-1,3,5-triazine-2,4-diamine]
20 | 100 to 1000 | < 100 | < 100 | FC(F)(F)c1cc(Nc2nc(NCC3CCOC3)nc(-c3cccc(C(F)(F)F)n3)n2)ccn1 (stereo not drawn) [Compound 547, N-(Tetrahydro-furan-3-ylmethyl)-N′-(2-trifluoromethyl-pyridin-4-yl)-6-(6-trifluoromethyl-pyridin-2-yl)-[1,3,5]triazine-2,4-diamine]
21 | < 100 | 100 to 1000 | 100 to 1000 | CC(C)Nc1nc(Nc2ccc(C#N)cc2)nc(-c2ccccc2)n1 [Compound 141]
22 | < 100 | 100 to 1000 | 100 to 1000 | CC(C)Nc1nc(Nc2ccncc2)nc(-c2ccccc2Cl)n1 [Compound 226, 6-(2-chlorophenyl)-N^2-isopropyl-N^4-(pyridin-4-yl)-1,3,5-triazine-2,4-diamine]
23 | < 100 | 100 to 1000 | < 100 | Fc1cc(Nc2nc(NC3[C@H]4COC[C@@H]34)nc(-c3ccccc3F)n2)ccn1 (stereo partly drawn) [Compound 636, 6-(2-Fluoro-phenyl)-N-(2-fluoro-pyridin-4-yl)-N′-(3-oxa-bicyclo[3.1.6]hex-6-yl)-[1,3,5]triazine-2,4-diamine]
24 | < 100 | 100 to 1000 | < 100 | c1ccc(Nc2nc(NC3COC3)nc(-c3ccccc3)n2)cc1 [Compound 175, N^2-(oxetan-3-yl)-N^4,6-diphenyl-1,3,5-triazine-2,4-diamine]
25 | < 100 | 100 to 1000 | < 100 | c1ccc(Nc2nc(NC3CCCCC3)nc(-c3ccccc3)n2)cc1 [Compound 113]
26 | 100 to 1000 | 100 to 1000 | 100 to 1000 | CC#Cc1cccc(-c2nc(Nc3cccc(F)c3)nc(NC(C)C)n2)n1 [Compound 467, N-(3-Fluoro-phenyl)-N′-isopropyl-6-(6-prop-1-ynyl-pyridin-2-yl)-[1,3,5]triazine-2,4-diamine]
27 | < 100 | 100 to 1000 | < 100 | CC(C)(CO)CNc1nc(Nc2ccccc2)nc(-c2ccccc2)n1 [Compound 239, 2,2-dimethyl-3-(4-phenyl-6-(phenylamino)-1,3,5-triazin-2-ylamino)propan-1-ol]
